Data on twelve compounds can be found in ChEMBL document CHEMBL1201862, “PubChem BioAssay data set” (2004).

Among the test systems are ACHN; HCT-15; HL-60; HOP-92; IGROV-1; K562; M14; MDA-N; NCI-H226; RXF 393; SF-539; SK-MEL-28; SK-MEL-5; SNB-75; SW-620; UACC-257; KM12; MDA-MB-231; SK-MEL-2; SK-OV-3.
Holding throughout (assay): NCI-60 cell line screen, 48 h

SMILES strings stand for the structures.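 Cultured in 96-well plates, cells were exposed to test compound for 48 hours across five concentrations. Here, GI50 denotes the concentration required for 50% inhibition of growth.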 Active and inactive are the calls of the source. Rule as the data show it: active = GI50 up to about 1.1 µM and inactive = higher. Bounds are passed on as bounds.

In the case of `C[N+](C)(C)C1(C(=O)[O-])CC1`, the GI50 is > 100 µM (inactive) in the experiment with ACHN; > 100 µM in the experiment with HCT-15; > 100 µM (inactive) in the experiment on HL-60; > 100 µM (inactive) with HOP-92; > 100 µM (inactive) in the experiment with IGROV-1; > 100 µM (inactive) in the experiment on K562. Further, the GI50 with M14, in the experiment on MDA-N, with NCI-H226, in the experiment with RXF 393, in the experiment on SF-539 and in the experiment on SK-MEL-28 was > 100 µM (inactive) throughout. Also, the GI50 in the experiment on SK-MEL-5, in the experiment on SNB-75, with SW-620 and in the experiment with UACC-257 was > 100 µM (inactive) in each case.

With `O=C(O)CN1CCN2CCOCCOCCN(CC1)CCN(CC(=O)O)CC2`, the GI50 was > 100 µM (inactive) with ACHN; > 100 µM with HCT-15; > 100 µM (inactive) with HOP-92; > 100 µM (inactive) in the experiment on IGROV-1; > 100 µM (inactive) in the experiment with K562; > 100 µM (inactive) in the experiment on KM12. In addition, the GI50 with M14, with MDA-MB-231, in the experiment on MDA-N, in the experiment with NCI-H226, in the experiment with SF-539 and in the experiment with SK-MEL-28 was > 100 µM (inactive) in each case. The GI50 in the experiment on SK-MEL-2, with SK-MEL-5, with SK-OV-3, in the experiment with SNB-75, in the experiment with SW-620 and in the experiment with UACC-257 was > 100 µM (inactive) each time.

On to `CN(C)/C=N/S(=O)(=O)c1nn2c(C=O)c(-c3ccc(Cl)cc3)nc2s1`, for which the GI50 in the experiment on ACHN was 1.15 µM (inactive); in the experiment with HCT-15, 1.61 µM; in the experiment with HOP-92 it was 2.34 µM (inactive); in the experiment on K562, 0.403 µM (active); in the experiment with KM12 it was 3.63 µM (inactive); with M14 it was 0.962 µM (active). The GI50 was 2.11 µM (inactive) with MDA-MB-231; 4.25 µM (inactive) in the experiment on NCI-H226; 1.51 µM (inactive) in the experiment on RXF 393; 2.13 µM (inactive) with SF-539; 1.62 µM (inactive) in the experiment with SK-MEL-28; 7.11 µM (inactive) in the experiment on SK-MEL-2. Further, the GI50 is 1.58 µM (inactive) with SK-MEL-5; 15.8 µM (inactive) in the experiment on SK-OV-3; 11.2 µM (inactive) with SNB-75; 0.444 µM (active) in the experiment on SW-620; 2.7 µM (inactive) in the experiment on UACC-257.

Turning to `COC(=O)c1cc2c(cc1Cl)Sc1nnc(Nc3ccccc3)n1S2(=O)=O`, the GI50 is 1.8 µM (inactive) in the experiment with ACHN; 2.34 µM in the experiment on HCT-15; 2.77 µM (inactive) in the experiment with HL-60; 1.42 µM (inactive) in the experiment with HOP-92; 0.351 µM (active) with IGROV-1; 3.41 µM (inactive) with K562. The GI50 in the experiment with KM12 was 2.71 µM (inactive); in the experiment on M14, 4.41 µM (inactive); in the experiment on MDA-MB-231, 3.98 µM (inactive); in the experiment on NCI-H226, 2.45 µM (inactive); in the experiment on RXF 393, 2.21 µM (inactive); in the experiment on SF-539 it was 2.15 µM (inactive). Further, the GI50 is 3.15 µM (inactive) with SK-MEL-28; 2.81 µM (inactive) with SK-MEL-2; 7.96 µM (inactive) in the experiment on SK-MEL-5; 6.75 µM (inactive) in the experiment with SK-OV-3; 5.12 µM (inactive) in the experiment on SNB-75; 3.39 µM (inactive) with SW-620. Besides, the GI50 with UACC-257 was 7.66 µM (inactive).

Take `CCCCCCCCCCCC(=O)Oc1c(Cl)cc(Cl)c(OC(=O)C(=O)Oc2c(Cl)cc(Cl)c(OC(=O)CCCCCCCCCCC)c2Cl)c1Cl`: the GI50 with ACHN, in the experiment with HOP-92, with IGROV-1, in the experiment on KM12, in the experiment with MDA-N and with RXF 393 was > 100 µM (inactive) in each case. In addition, the GI50 with SK-MEL-28 was > 100 µM (inactive); in the experiment with SK-MEL-2, > 10 µM (inactive); with SK-MEL-5, > 100 µM (inactive); with SK-OV-3, > 100 µM (inactive); in the experiment with SNB-75, > 100 µM (inactive); in the experiment with SW-620 it was > 100 µM (inactive). Moreover, in the experiment with UACC-257, the GI50 is > 100 µM (inactive).

With `Cc1ccccc1/C=N/C12CC3CC(CC(C3)C1)C2`, the GI50 with ACHN was > 100 µM (inactive); in the experiment with HCT-15 it was > 100 µM; in the experiment on HL-60, > 100 µM (inactive); in the experiment on HOP-92, > 100 µM (inactive); with IGROV-1 it was > 100 µM (inactive); in the experiment with K562 it was > 100 µM (inactive). Moreover, the GI50 with KM12, in the experiment on M14, in the experiment with NCI-H226, with RXF 393, in the experiment on SF-539 and with SK-MEL-28 was > 100 µM (inactive) each time. Besides, the GI50 in the experiment with SK-MEL-2, in the experiment with SK-MEL-5, in the experiment on SK-OV-3, with SNB-75, in the experiment with SW-620 and in the experiment on UACC-257 was > 100 µM (inactive) throughout.

Turning to `Cn1c(=O)c2c(nc3n(Cc4ccccc4)c(=O)c(NCCCBr)cn23)n(C)c1=O`, the GI50 was 32.6 µM (inactive) with ACHN; > 100 µM in the experiment on HCT-15; > 100 µM (inactive) in the experiment on HL-60; 18.1 µM (inactive) in the experiment on HOP-92; 46.7 µM (inactive) in the experiment with IGROV-1; > 100 µM (inactive) in the experiment with K562. Further, the GI50 with KM12 was > 100 µM (inactive); in the experiment on M14 it was > 100 µM (inactive); in the experiment with MDA-MB-231, 64.9 µM (inactive); in the experiment with NCI-H226 it was 31.5 µM (inactive); in the experiment with RXF 393, 71 µM (inactive); with SK-MEL-28, > 100 µM (inactive). For the same compound, the GI50 in the experiment with SK-MEL-2 was > 100 µM (inactive); with SK-MEL-5, > 100 µM (inactive); with SK-OV-3, 36.6 µM (inactive); with SNB-75, 24.8 µM (inactive); with SW-620, > 100 µM (inactive); in the experiment on UACC-257, > 100 µM (inactive).

Regarding `CC(C)(CO)NC(=O)c1cccs1`, the GI50 was > 100 µM (inactive) in the experiment with ACHN; > 100 µM with HCT-15; > 100 µM (inactive) with HL-60; > 100 µM (inactive) in the experiment on HOP-92; > 100 µM (inactive) in the experiment on IGROV-1; > 100 µM (inactive) in the experiment on K562. Moreover, the GI50 with KM12, in the experiment with M14, with MDA-MB-231, with SK-MEL-28, in the experiment with SK-MEL-2 and with SK-MEL-5 was > 100 µM (inactive) in each case. Besides, the GI50 with SK-OV-3, in the experiment on SW-620 and with UACC-257 was > 100 µM (inactive) throughout.

For `CCCCNC(=S)Nc1nc(C(=O)NNC(=S)Nc2ccccc2)cs1`, the GI50 with ACHN is > 100 µM (inactive); in the experiment on HCT-15, > 100 µM; with HOP-92, 21.4 µM (inactive); in the experiment on KM12 it was > 100 µM (inactive); with M14, 82.8 µM (inactive); with MDA-MB-231, 30.3 µM (inactive). Also, the GI50 is > 100 µM (inactive) in the experiment with MDA-N; > 100 µM (inactive) in the experiment with NCI-H226; > 100 µM (inactive) in the experiment with SF-539; 44.9 µM (inactive) in the experiment with SK-MEL-2; 40.4 µM (inactive) in the experiment with SK-MEL-5; > 100 µM (inactive) in the experiment with SK-OV-3. Besides, the GI50 in the experiment with SNB-75 is 38.3 µM (inactive); with SW-620 it was > 100 µM (inactive); with UACC-257 it was > 100 µM (inactive).

As to `O=C(CSCC(=O)N/N=C\c1ccc(O)c(O)c1O)N/N=C\c1ccc(O)c(O)c1O`, the GI50 is 5.87 µM (inactive) in the experiment on ACHN; 13.4 µM in the experiment on HCT-15; 15.8 µM (inactive) in the experiment on HL-60; 31 µM (inactive) in the experiment with HOP-92; 19.8 µM (inactive) in the experiment on IGROV-1; 18.3 µM (inactive) with KM12. Also, the GI50 in the experiment with M14 is 6.31 µM (inactive); in the experiment with MDA-MB-231, 16.6 µM (inactive); with NCI-H226, 26.2 µM (inactive); with RXF 393 it was 34.9 µM (inactive); with SF-539, 7.67 µM (inactive); in the experiment with SK-MEL-28 it was 20.8 µM (inactive). Besides, the GI50 is 28.3 µM (inactive) in the experiment with SK-MEL-2; 18.5 µM (inactive) with SK-MEL-5; 31.6 µM (inactive) in the experiment on SK-OV-3; 2.11 µM (inactive) in the experiment with SNB-75; 3.39 µM (inactive) in the experiment on SW-620; 5.25 µM (inactive) in the experiment with UACC-257.

Regarding `CCOC(=O)c1nc2ccc(C(F)(F)F)cc2nc1Nc1ccc(OC)cc1`, the GI50 in the experiment on ACHN is 55 µM (inactive); in the experiment on HCT-15 it was > 100 µM; in the experiment on HL-60 it was > 100 µM (inactive); with HOP-92, 12 µM (inactive); in the experiment on IGROV-1, 36.6 µM (inactive); in the experiment with K562, 68.2 µM (inactive). The GI50 in the experiment on KM12 was > 100 µM (inactive); in the experiment on M14, 84.1 µM (inactive); with MDA-MB-231, 17.7 µM (inactive); in the experiment on NCI-H226, 32.5 µM (inactive); with RXF 393, 22.1 µM (inactive); with SF-539, 33 µM (inactive). Further, the GI50 was > 100 µM (inactive) in the experiment on SK-MEL-28; 71.9 µM (inactive) in the experiment on SK-MEL-2; 54.7 µM (inactive) with SK-MEL-5; 93.5 µM (inactive) in the experiment on SNB-75; > 100 µM (inactive) with SW-620; > 100 µM (inactive) with UACC-257.

In the case of `O=C(/N=C1\SCCN1C(=O)C(C(F)(F)F)C(F)(F)F)C(C(F)(F)F)C(F)(F)F`, the GI50 in the experiment with ACHN was > 100 µM (inactive); with HCT-15, > 100 µM; in the experiment with HL-60, > 100 µM (inactive); in the experiment with HOP-92, > 100 µM (inactive); in the experiment on IGROV-1 it was > 100 µM (inactive); with K562, > 100 µM (inactive). Further, the GI50 with M14, with MDA-MB-231, in the experiment on NCI-H226, in the experiment with RXF 393, with SF-539 and in the experiment with SK-MEL-28 was > 100 µM (inactive) each time. The GI50 in the experiment on SK-MEL-2, with SK-MEL-5, in the experiment on SK-OV-3, in the experiment with SW-620 and in the experiment with UACC-257 was > 100 µM (inactive) each time.
